{
  "source": "PubChem BioAssay AID1259407",
  "about": "(Chemical Carcinogenesis Research Information System (CCRIS), 2018)",
  "test_system": "CCRIS mutagenicity, Ames/micronucleus/aberration tests",
  "test": "CCRIS mutagenicity studies",
  "note": "Activity calls are given as the source filed them. No rule for the calls is given here.",
  "data": [
    {"smiles": "CC(=O)Oc1ccccc1C(=O)O", "values": [
      {"measurement": "mutagenic call", "setting": "End Point: IN VITRO MICRONUCLEUS, Test System: CHL/IU CELLS, Metabolic Activation: NONE", "result": "active; positive"},
      {"measurement": "mutagenic call", "setting": "End Point: IN VITRO MICRONUCLEUS, Test System: RAT KIDNEY FIBROBLAST NRK-49F, Metabolic Activation: NONE", "result": "inactive; negative"},
      {"measurement": "mutagenic call", "setting": "Test System: AMES SALMONELLA TYPHIMURIUM, Strain/Indicator: TA97, Metabolic Activation: HAMSTER, LIVER, S-9, AROCLOR 1254 (10%), Method: PREINCUBATION", "result": "inactive; negative"},
      {"measurement": "mutagenic call", "setting": "Test System: AMES SALMONELLA TYPHIMURIUM, Strain/Indicator: TA97, Metabolic Activation: HAMSTER, LIVER, S-9, AROCLOR 1254 (30%), Method: PREINCUBATION", "result": "inactive; negative"},
      {"measurement": "mutagenic call", "setting": "Test System: AMES SALMONELLA TYPHIMURIUM, Strain/Indicator: TA97, Metabolic Activation: NONE, Method: PREINCUBATION", "result": "inactive; negative"},
      {"measurement": "mutagenic call", "setting": "Test System: AMES SALMONELLA TYPHIMURIUM, Strain/Indicator: TA97, Metabolic Activation: RAT, LIVER, S-9, AROCLOR 1254 (10%), Method: PREINCUBATION", "result": "inactive; negative"},
      {"measurement": "mutagenic call", "setting": "Test System: AMES SALMONELLA TYPHIMURIUM, Strain/Indicator: TA97, Metabolic Activation: RAT, LIVER, S-9, AROCLOR 1254 (30%), Method: PREINCUBATION", "result": "inactive; negative"},
      {"measurement": "mutagenic call", "setting": "Test System: AMES SALMONELLA TYPHIMURIUM, Strain/Indicator: TA98, Metabolic Activation: GUINEA PIG, LIVER, S-9, PCB, Method: PREINCUBATION", "result": "inactive; negative"},
      {"measurement": "mutagenic call", "setting": "Test System: AMES SALMONELLA TYPHIMURIUM, Strain/Indicator: TA98, Metabolic Activation: HAMSTER, LIVER, S-9, AROCLOR 1254 (10%), Method: PREINCUBATION", "result": "inactive; negative"},
      {"measurement": "mutagenic call", "setting": "Test System: AMES SALMONELLA TYPHIMURIUM, Strain/Indicator: TA98, Metabolic Activation: HAMSTER, LIVER, S-9, AROCLOR 1254 (30%), Method: PREINCUBATION", "result": "inactive; negative"},
      {"measurement": "mutagenic call", "setting": "Test System: AMES SALMONELLA TYPHIMURIUM, Strain/Indicator: TA98, Metabolic Activation: HAMSTER, LIVER, S-9, AROCLOR 1254, Method: STANDARD PLATE", "result": "inactive; negative"},
      {"measurement": "mutagenic call", "setting": "Test System: AMES SALMONELLA TYPHIMURIUM, Strain/Indicator: TA98, Metabolic Activation: HAMSTER, LIVER, S-9, PCB, Method: PREINCUBATION", "result": "inactive; negative"},
      {"measurement": "mutagenic call", "setting": "Test System: AMES SALMONELLA TYPHIMURIUM, Strain/Indicator: TA98, Metabolic Activation: MOUSE, LIVER, S-9, AROCLOR 1254, Method: STANDARD PLATE", "result": "inactive; negative"},
      {"measurement": "mutagenic call", "setting": "Test System: AMES SALMONELLA TYPHIMURIUM, Strain/Indicator: TA98, Metabolic Activation: MOUSE, LIVER, S-9, PCB, Method: PREINCUBATION", "result": "inactive; negative"},
      {"measurement": "mutagenic call", "setting": "Test System: AMES SALMONELLA TYPHIMURIUM, Strain/Indicator: TA98, Metabolic Activation: NONE, Method: PREINCUBATION", "result": "inactive; negative"},
      {"measurement": "mutagenic call", "setting": "Test System: AMES SALMONELLA TYPHIMURIUM, Strain/Indicator: TA98, Metabolic Activation: NONE, Method: STANDARD PLATE", "result": "inactive; negative"},
      {"measurement": "mutagenic call", "setting": "Test System: AMES SALMONELLA TYPHIMURIUM, Strain/Indicator: TA98, Metabolic Activation: RAT, LIVER, S-9, AROCLOR 1254 (10%), Method: PREINCUBATION", "result": "inactive; negative"},
      {"measurement": "mutagenic call", "setting": "Test System: AMES SALMONELLA TYPHIMURIUM, Strain/Indicator: TA98, Metabolic Activation: RAT, LIVER, S-9, AROCLOR 1254 (30%), Method: PREINCUBATION", "result": "inactive; negative"},
      {"measurement": "mutagenic call", "setting": "Test System: AMES SALMONELLA TYPHIMURIUM, Strain/Indicator: TA98, Metabolic Activation: RAT, LIVER, S-9, AROCLOR 1254, Method: STANDARD PLATE", "result": "inactive; negative"},
      {"measurement": "mutagenic call", "setting": "Test System: AMES SALMONELLA TYPHIMURIUM, Strain/Indicator: TA98, Metabolic Activation: RAT, LIVER, S-9, PCB, Method: PREINCUBATION", "result": "inactive; negative"},
      {"measurement": "mutagenic call", "setting": "Test System: AMES SALMONELLA TYPHIMURIUM, Strain/Indicator: TA98, Metabolic Activation: RAT, LIVER, S-9, PCB, Method: STANDARD PLATE", "result": "inactive; negative"},
      {"measurement": "mutagenic call", "setting": "Test System: AMES SALMONELLA TYPHIMURIUM, Strain/Indicator: TA100, Metabolic Activation: GUINEA PIG, LIVER, S-9, PCB, Method: PREINCUBATION", "result": "inactive; negative"},
      {"measurement": "mutagenic call", "setting": "Test System: AMES SALMONELLA TYPHIMURIUM, Strain/Indicator: TA100, Metabolic Activation: HAMSTER, LIVER, S-9, AROCLOR 1254 (10%), Method: PREINCUBATION", "result": "inactive; negative"},
      {"measurement": "mutagenic call", "setting": "Test System: AMES SALMONELLA TYPHIMURIUM, Strain/Indicator: TA100, Metabolic Activation: HAMSTER, LIVER, S-9, AROCLOR 1254 (30%), Method: PREINCUBATION", "result": "inactive; negative"},
      {"measurement": "mutagenic call", "setting": "Test System: AMES SALMONELLA TYPHIMURIUM, Strain/Indicator: TA100, Metabolic Activation: HAMSTER, LIVER, S-9, AROCLOR 1254, Method: STANDARD PLATE", "result": "inactive; negative"},
      {"measurement": "mutagenic call", "setting": "Test System: AMES SALMONELLA TYPHIMURIUM, Strain/Indicator: TA100, Metabolic Activation: HAMSTER, LIVER, S-9, PCB, Method: PREINCUBATION", "result": "inactive; negative"},
      {"measurement": "mutagenic call", "setting": "Test System: AMES SALMONELLA TYPHIMURIUM, Strain/Indicator: TA100, Metabolic Activation: MOUSE, LIVER, S-9, AROCLOR 1254, Method: STANDARD PLATE", "result": "inactive; negative"},
      {"measurement": "mutagenic call", "setting": "Test System: AMES SALMONELLA TYPHIMURIUM, Strain/Indicator: TA100, Metabolic Activation: MOUSE, LIVER, S-9, PCB, Method: PREINCUBATION", "result": "inactive; negative"},
      {"measurement": "mutagenic call", "setting": "Test System: AMES SALMONELLA TYPHIMURIUM, Strain/Indicator: TA100, Metabolic Activation: NONE, Method: PREINCUBATION", "result": "inactive; negative"},
      {"measurement": "mutagenic call", "setting": "Test System: AMES SALMONELLA TYPHIMURIUM, Strain/Indicator: TA100, Metabolic Activation: NONE, Method: STANDARD PLATE", "result": "inactive; negative"},
      {"measurement": "mutagenic call", "setting": "Test System: AMES SALMONELLA TYPHIMURIUM, Strain/Indicator: TA100, Metabolic Activation: RAT, LIVER, S-9, AROCLOR 1254 (10%), Method: PREINCUBATION", "result": "inactive; negative"}
    ]}
  ]
}
